Measurements as given in patent publication EP0402734A2, “Composition for the treatment of application of the central nervous system and to enhance cerebral perfusion” (Dr. Karl Thomae GmbH, priority 1989, dated 1990).

Experiments:
[1] = system: inhibitorischen Autorezeptoren in hippocampalem Gewebe; test: Transmitter release study: in vitro acetylcholine release from electrically stimulated hippocampal slices, antagonism of carbachol; type: cell-based, Ratten; conditions: rat hippocampal slices 0,4 mm, preloaded with ³H-Cholin, electrical stimulation 3 Hz, agonist Carbachol
Text: B. Transmitter Release Studien
Die Versuche zur in-vitro Freisetzung von Acetylcholin aus hippocampalen Gewebeschnitten wurden in Analogie zu Anord nungen durchgeführt, die für die Freisetzung von 5-HT aus Hypothalamus- bzw. Hippocampus-Gewebe beschrieben sind (vgl. M.H. Richards, Naunyn Schmiedeberg's Arch. Pharmacol. 329, 359-366 (1985) und T.J. Feuerstein, G. Hertting und R. Jackisch, Europ. J. Pharmacol. 107, 233-242 (1985)).
Männliche Ratten (Stamm Chbb:Thom, Gewicht 200 bis 300 g) wurden ohne Vorbehandlung dekapitiert; das gesamte Gehirn wurde sofort entnommen und unter Eiskühlung zerlegt. Gemäß den oben beschriebenen Verfahren wurde der Hippocampus in 0,4 mm dicke Schnitte mit Hilfe eines McIlwain-Gewebehackers geschnitten. Die Gewebeschnitte wurden 30 Minuten lang bei 37°C vorincubiert in Gegenwart von 0,05 mM ³H-Cholin in Krebs-Henseleit Puffer der folgenden Zusammensetzung: 120 mM NaCl, 4,8 mM KCl, 1,3 mM CaCl₂, 1,2 mM KH₂PO₄, 1,2 mM MgSO₄ und 25 mM NaHCO₃. Der Puffer enthielt zusätzlich 2 g Glucose und 100 mg EDTA. Der Puffer wurde mit Natronlauge auf einen pH-Wert von 7,4 bei 20°C eingestellt. Alle Lösungen wurden kontinuierlich mit 95 % O₂ und 5 % CO₂ gesättigt. Die Gewebeschnitte wurden daraufhin gespült, jeder Gewebeschnitt wurde jeweils willkürlich auf 12 Superfusionseinheiten gegeben und mit der Pufferlösung bei 37°C bei einer Fließgeschwindigkeit von 1 ml/min überspült. Die Gewebeschnitte wurden jeweils von einem Polypropylennetzwerk zwischen zwei Platinelektroden gehalten. Nach 50-minütiger Überspülung wurden 4-Minuten-Fraktionen des Superfusats über eine gesamte Zeitdauer von 92 Minuten gesammelt. Die Gewebeschnitte wurden zweimal elektrisch stimuliert, und zwar 60 Minuten (S1) und 100 Minuten (S2) nach Beginn der Superfusion. Dabei wurden Rechteckimpulse von 2 ms Dauer und mit einer Frequenz von 3 Hz 100 Sekunden lang bei 5 V/cm und 24 mA mittels eines HSE Stimulators II der Firma Hugo Sachs Elektronik, Hugstetten, West-Deutschland, verabreicht. Die zu prüfenden Substanzen wurden dem Puffer ab 20 Minuten vor dem Zeitpunkt S2 zusammen mit dem Agonisten (Carbachol) beigefügt. Am Ende wurden die Gewebeschnitte aus den Kammern entfernt und zur Bestimmung des verbliebenen Tritiums solubilisiert. […]

[2] = target: muscarinische Rezeptoren der Pia mater des Rindes; test: Inhibition of 3H-NMS binding to muscarinic receptors in bovine pia mater vessel homogenate; design: species or system Rind; conditions: Hemmung der ³H-NMS-Bindung, 0,3 nM [³H]NMS, 45 min, room temperature
Protocol: A. Bindung verschiedener muskarinischer Antagonisten an Rezeptoren der Pia mater des Rindes
Die Pia-Gefäße von Rinder-Hirnen, erhalten vom lokalen Schlachthof, wurden präpariert und von Blutresten gereinigt. Je 0,5 g-Portionen wurden bei -80°C bis zur weiteren Verwendung gelagert. Zur Homogenatgewinnung wurden 0,5 g Pia-Gefäße mittels eines Gewebehackers zerkleinert, in 60 ml HEPES-Puffer (20 mM HEPES, 10 mM MgCl₂, 100 mM NaCl, pH 7,50) aufgenommen, mit einem Ultra-Turrax homogenisiert und 20 min. bei 0°C mit 48000 x g zentrifugiert. Das Pellet wurde erneut mit einem Ultra-Turrax homogenisiert, durch Mull filtriert und mit HEPES-Puffer auf eine Verdünnung von 1:140 bezogen auf das Feuchtgewicht der Gefäße verdünnt.
0,3 nM [³H]NMS (³H-N-Methylscopolamin) und steigende Konzentrationen des Antagonisten wurden mit dem Homogenat in einem Gesamtvolumen von 0,52 ml für 45 min. bei Raumtemperatur inkubiert. Der Inkubationsansatz wurde mit Hilfe eines Scatron Cell Harvesters über Glasfaser-Filtermatten filtriert und zweimal mit eiskalter physiologischer Kochsalzlösung gewaschen. Die Filter-gebundene Radioaktivität wurde in einem Flüssigkeitsszintillationszähler bestimmt. Als unspezifische Bindung wurde die gebundene Radioaktivität in Gegenwart von 10⁻⁶M (-)-Chinuclidinyl-benzilat definiert.

| SMILES | ACh-Release aus Hippocampus-Gewebe (pA₂) [1] | -log IC₅₀ (M) [2] |
| --- | --- | --- |
| CCCN(CCC)CC1CCCCN1CCNC(=O)N1c2ccccc2C(=O)Nc2cccnc21.CS(=O)(=O)O (centres unmarked) [D, 5,11-Dihydro-11-[[[2-[2-[(dipropylamino)methyl]-1-piperidinyl]ethyl]amino]carbonyl]-6H-pyrido[2,3-b][1,4]benzodiazepin-6-on-methansulfonat] | 8,35 | 7,9 M |
| CN(CCC1CCCN1C)CC(=O)N1c2ccccc2C(=O)Nc2cccnc21 (centres unmarked) [K, 5,11-Dihydro-11-[[[2-(1-methyl-2-pyrrolidinyl)ethyl]methylamino]acetyl]-6H-pyrido[2,3-b][1,4]benzodiazepin-6-on] | 8,5 | 8,2 M |
| O=C1Nc2cccnc2N(C(=O)CCC#CCN2CCCCC2)c2ccccc21 [B, 5,11-Dihydro-11-[1-oxo-6-(1-piperidinyl)-4-hexin-1-yl]-6H-pyrido[2,3-b][1,4]benzodiazepin-6-on] | 7,2 | 6,9 M |
| CN(CCC1CCCCCN1C)CC(=O)N1c2ccccc2C(=O)Nc2cccnc21 (centres unmarked) [L, 5,11-Dihydro-11-[[[2-(1-methyl-hexahydro-1H-2-azepinyl)ethyl]methylamino]acetyl]-6H-pyrido[2,3-b][1,4]benzodiazepin-6-on] | 8,45 | 8,4 M |
| CCN(CC)CC1CCCCN1CC(=O)N1c2ccccc2C(=O)Nc2cccnc21 (single isomer, unassigned; (+)) [A, (+)-11-[[2-[(Diethylamino)methyl]-1-piperidinyl]acetyl]-5,11-dihydro-6H-pyrido[2,3-b][1,4]benzodiazepin-6-on] | 7,15 | 7,1 M |
| CCN(CC)CC1COCCN1CCCC(=O)N1c2ccccc2C(=O)Nc2cccnc21 (centres unmarked) [I, 11-[4-[3-[(Diethylamino)methyl]-4-morpholinyl]-1-oxo-1-butyl]-5,11-dihydro-6H-pyrido[2,3-b][1,4]benzodiazepin-6-on] | 7,5 | 7,7 M |
| Cc1scc2c1N(C(=O)CCC#CCN1CCCCCC1)c1ccccc1NC2=O [H, 4,9-Dihydro-3-methyl-4-[6-(hexahydro-1H-1-azepinyl)-1-oxo-4-hexin-1-yl]-10H-thieno[3,4-b][1,5]benzodiazepin-10-on] | 8,0 | 8,0 M |
| O=C1Nc2cccnc2N(C(=O)N2CCCC(CCCN3CCCCC3)C2)c2ccccc21 (centres unmarked) [E, 5,11-Dihydro-11-[[3-[3-(1-piperidinyl)-1-propyl]-1-piperidinyl]carbonyl]-6H-pyrido[2,3-b][1,4]benzodiazepin-6-on] | 9,55 | 8,8 M |
| Cc1scc2c1N(C(=O)CN1CCC(CCCN3CCCCC3)CC1)c1ccccc1NC2=O [F, 4,9-Dihydro-3-methyl-4-[[4-[3-(1-piperidinyl)-1-propyl]-1-piperidinyl]acetyl]-10H-thieno[3,4-b][1,5]benzodiazepin-10-on] | 7,7 | 8,6 M |
| CCN(CC)CC1CCCCN1CC(=O)N1c2cc(Cl)ccc2C(=O)Nc2cccnc21 (racemic) [C, (±)-9-Chlor-11-[[2-[(diethylamino)methyl]-1-piperidinyl]acetyl]-5,11-dihydro-6H-pyrido[2,3-b][1,4]benzodiazepin-6-on] | 7,3 | 7,5 M |
